Numbered stars: 1 amine (or outer) side, 2 acyl side, 3 side chain; on linkers, the order of the positions; unused ones are H or OH. Bridge positions count the residues as written; N and C are the ends. Square brackets hold non-standard residues; d marks the D form. Side chains are listed from the residue outwards. Peptide text beside a SMILES is read from it. * marks the point of attachment. ξ: configuration not given here. DOTA = O=C(O)CN1CCN(CC(=O)O)CCN(CC(=O)*)CCN(CC(=O)O)CC1; X3 = O=C([C@H](Cc1ccccc1CN[*:3])N[*:1])[*:2]; 1Nal = N[C@@H](Cc1cccc2ccccc12)C(=O)O; 2Nal = N[C@@H](Cc1ccc2ccccc2c1)C(=O)O; Phe(2-Me) = Cc1ccccc1C[C@H](N)C(=O)O; ξγGlu = O=C(O)C(CCC(=O)[*:2])N[*:1]; tBuAla = CC(C)(C)C[C@H](N)C(=O)O; NMeD = CN[C@@H](CC(=O)O)C(=O)O; αMeP = C[C@@]1(C(=O)O)CCCN1; Ahx = NCCCCCC(=O)O
What follows are compounds tested against T1, human DLL3 (Homo sapiens, UniProt Q9NYJ7) (assay: Affinity determination by Surface Plasmon Resonance (SPR), Biacore, 1:1 binding model). Settings: biotinylated human DLL3 on streptavidin chip, 25° C.; NB = nonbinding.
T1 construct: biotin (biotinylated)
T1 sequence (Q9NYJ7 27-618): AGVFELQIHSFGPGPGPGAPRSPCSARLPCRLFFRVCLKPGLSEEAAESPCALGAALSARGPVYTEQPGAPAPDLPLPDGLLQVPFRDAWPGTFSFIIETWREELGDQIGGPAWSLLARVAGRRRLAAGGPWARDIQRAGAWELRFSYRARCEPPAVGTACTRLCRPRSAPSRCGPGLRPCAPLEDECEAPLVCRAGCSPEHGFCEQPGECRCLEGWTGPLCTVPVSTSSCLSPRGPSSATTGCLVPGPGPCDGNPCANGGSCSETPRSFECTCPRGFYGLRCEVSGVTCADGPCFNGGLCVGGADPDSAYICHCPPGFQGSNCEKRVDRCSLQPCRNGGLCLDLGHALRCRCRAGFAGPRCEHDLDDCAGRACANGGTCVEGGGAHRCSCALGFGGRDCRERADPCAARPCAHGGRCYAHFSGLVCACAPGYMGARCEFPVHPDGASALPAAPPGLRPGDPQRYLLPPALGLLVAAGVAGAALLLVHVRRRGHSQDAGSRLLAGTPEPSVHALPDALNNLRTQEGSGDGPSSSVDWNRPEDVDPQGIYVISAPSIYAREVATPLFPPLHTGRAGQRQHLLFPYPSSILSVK
Method in brief: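 SPR with biotinylated human DLL3 captured on a streptavidin chip, with a reference surface subtracted. Samples were injected at several concentrations at 100 μL/min in phosphate buffer with 137 mM NaCl, 2.7 mM KCl, 0.05% P20 and 2% DMSO. Kinetic and affinity constants came from a 1:1 binding fit.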
For `CC(=O)N[C@H](C)C(=O)N[C@@H](CO)C(=O)N[C@@H](CC(=O)O)C(=O)N[C@H]1CSSC[C@@H](C(=O)N2CCC[C@@]2(C)C(=O)N[C@@H](Cc2ccccc2)C(=O)N(C)[C@@H](CC(=O)O)C(=O)N[C@H](CCCCNC(=O)CN2CCN(CC(=O)O)CCN(CC(=O)O)CCN(CC(=O)O)CC2)C(=O)O)NC(=O)[C@H](CC(N)=O)NC(=O)[C@H](Cc2ccc3ccccc3c2)NC(=O)[C@H](CCC(N)=O)NC(=O)[C@H](CC(C)(C)C)NC(=O)[C@H](Cc2cccc3ccccc23)NC1=O` [compound 149, Ac-(D-Ala)-S-D-C(3)-(1Nal)-(t-Bu-Ala)-Q-(2Nal)-N-C(3)-(aMe-P)-F-(NMe-D)-D-Lys(DOTA)-CONH2] (Ac-[dA]SDC[1Nal][tBuAla]Q[2Nal]NC[αMeP]F[NMeD][dK](DOTA)-OH; disulfide 4-10), the Kd was greater than 30 nM. For `CC(=O)N[C@H](C)C(=O)N[C@@H](CO)C(=O)N[C@@H](CC(=O)O)C(=O)N[C@H]1CSSC[C@@H](C(=O)N2CCC[C@@]2(C)C(=O)N[C@@H](Cc2ccccc2C)C(=O)N[C@@H](CC(=O)O)C(N)=O)NC(=O)[C@H](CC(N)=O)NC(=O)[C@H](Cc2ccc3ccccc3c2)NC(=O)[C@H](CCCCNC(=O)CCC(NC(=O)CN2CCN(CC(=O)O)CCN(CC(=O)O)CCN(CC(=O)O)CC2)C(=O)O)NC(=O)[C@H](CC(C)(C)C)NC(=O)[C@H](Cc2cccc3ccccc23)NC1=O` (stereo partly drawn) [compound 152, Ac-(D-Ala)-S-D-C(3)-(1Nal)-(t-Bu-Ala)-[L-Lys(yE-DOTA)]-(2Nal)-N-C(3)-(aMe-P)-(2Me-F)-D-CONH2] (Ac-[dA]SDC[1Nal][tBuAla]K([ξγGlu-DOTA])[2Nal]NC[αMeP][Phe(2-Me)]D-NH2; disulfide 4-10), the Kd was 0.51 nM. For `Cc1ccccc1C[C@H](NC(=O)[C@]1(C)CCCN1C(=O)[C@@H]1CSSC[C@H](NC(=O)[C@H](CC(=O)O)NC(=O)[C@H](CO)NC(=O)CCCCCNC(=O)CN2CCN(CC(=O)O)CCN(CC(=O)O)CCN(CC(=O)O)CC2)C(=O)N[C@@H](Cc2cccc3ccccc23)C(=O)N[C@@H](CC(C)(C)C)C(=O)N[C@@H](CCC(N)=O)C(=O)N[C@@H](Cc2ccc3ccccc3c2)C(=O)N[C@@H](CC(N)=O)C(=O)N1)C(=O)N[C@@H](CC(=O)O)C(N)=O` [compound 155, DOTA-Ahx-S-D-C(3)-(1Nal)-(t-Bu-Ala)-Q-(2Nal)-N-C(3)-(aMe-P)-(2Me-F)-D-CONH2] ({DOTA-Ahx}-SDC[1Nal][tBuAla]Q[2Nal]NC[αMeP][Phe(2-Me)]D-NH2; disulfide 3-9), the Kd was 0.11 nM. With `CC(C)(C)C[C@@H]1NC(=O)[C@H](Cc2cccc3ccccc23)NC(=O)[C@@H](NC(=O)[C@H](CC(=O)O)NC(=O)[C@H](CO)NC(=O)CCCCCNC(=O)CN2CCN(CC(=O)O)CCN(CC(=O)O)CCN(CC(=O)O)CC2)CSSC[C@@H](C(=O)N2CCC[C@@]2(C)C(=O)N[C@@H](Cc2ccccc2)C(=O)N[C@@H](CC(=O)O)C(=O)O)NC(=O)[C@H](CC(N)=O)NC(=O)[C@H](Cc2ccc3ccccc3c2)NC(=O)[C@H](CCC(N)=O)NC1=O` [compound 156, DOTA-Ahx-S-D-C(3)-(1Nal)-(t-Bu-Ala)-Q-(2Nal)-N-C(3)-(aMe-P)-F -D-COOH] ({DOTA-Ahx}-SDC[1Nal][tBuAla]Q[2Nal]NC[αMeP]FD-OH; disulfide 3-9) the Kd was 0.11 nM. `CC(=O)N[C@H](C)C(=O)N[C@@H](CO)C(=O)N[C@@H](CC(=O)O)C(=O)N[C@H]1CSSC[C@@H](C(=O)N2CCC[C@@]2(C)C(=O)N[C@@H](Cc2ccccc2CNC(=O)CN2CCN(CC(=O)O)CCN(CC(=O)O)CCN(CC(=O)O)CC2)C(=O)N[C@@H](CC(=O)O)C(N)=O)NC(=O)[C@H](CC(N)=O)NC(=O)[C@H](Cc2ccc3ccccc3c2)NC(=O)[C@H](CCC(N)=O)NC(=O)[C@H](CC(C)(C)C)NC(=O)[C@H](Cc2cccc3ccccc23)NC1=O` [compound 159, Ac-(D-Ala)-S-D-C(3)-(1Nal)-(t-Bu-Ala)-Q-(2Nal)-N-C(3)-(aMe-P)-[OAF(DOTA)]-D-CONH2] (Ac-[dA]SDC[1Nal][tBuAla]Q[2Nal]NC[αMeP][X3](DOTA)D-NH2; disulfide 4-10) was tested, and the Kd was greater than 30 nM.
